Our source for the Kd, kon and koff values is paper PMC11797554, “Chemical genetics reveals cross-regulation of plant developmental signaling by the immune peptide-receptor pathway” (Science Advances, 2024).

Test [1] addresses T1, MPK6 (Arabidopsis thaliana, UniProt Q39026).
T1 construct: MPK6ΔNt (29 to 305)
Description: BLI and ITC with recombinant MPK6; also in vitro kinase inhibition. The format is binding.

In test [2] the target is CA-MPK6 (constitutively active MPK6) (Arabidopsis thaliana, UniProt Q39026, D218G/E222A). Description: biochemical. The class given is binding.
Test [3] deals with T1, MPK6. As to the kind of experiment: biochemical. More on the design: biolayer interferometry (Octet Red96), GST-tagged protein on probe, 25 °C, 1:1 model. Conditions: read-out: kon (M^-1s^-1).
In test [4] the target is T1, MPK6. Description: biochemical. More on the design: biolayer interferometry (Octet Red96), GST-tagged protein on probe, 25 °C, 1:1 model. Conditions: read-out: koff (s^-1).
The target of test [5] is T1, MPK6. Description: biochemical. Details: isothermal titration calorimetry, 25 °C, PBS pH 7.4, 2% DMSO.

T1 sequence (Q39026 29-305): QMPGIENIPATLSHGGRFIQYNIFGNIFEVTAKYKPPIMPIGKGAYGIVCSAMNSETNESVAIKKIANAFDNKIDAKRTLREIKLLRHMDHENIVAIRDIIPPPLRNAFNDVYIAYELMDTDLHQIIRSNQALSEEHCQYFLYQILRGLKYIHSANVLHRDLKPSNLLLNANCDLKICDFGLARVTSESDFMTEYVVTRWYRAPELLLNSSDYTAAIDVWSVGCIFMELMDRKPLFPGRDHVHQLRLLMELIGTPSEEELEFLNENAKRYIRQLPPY
Sequence of CA-MPK6 (constitutively active MPK6) (Q39026 29-305 D218G/E222A limits assumed): as the sequence (Q39026 29-305) above, with D190G, E194A counted along it

Consider `O=P(O)(O)C(O)c1ccc2ccccc2c1` (stereo not shown) [compound 2, hydroxy-2-naphthalenymethylphosphonic acid], for which the Kd (as a rule, the equilibrium constant for the complex coming apart) amounted to 4.9 ± 0.6 µM on MPK6 [1] and 58 ± 13 µM in test [2]. The kon (in general, a measure of how fast the partners come together) at MPK6 [3] is 3020 M⁻¹ s⁻¹. For the same molecule, the koff (as a rule, the rate constant with which the complex falls apart) at MPK6 [4] worked out at 0.0175 s⁻¹.
For `Nc1ncnc2c1ncn2[C@@H]1O[C@H](COP(=O)(O)OP(=O)(O)OP(=O)(O)O)[C@@H](O)[C@H]1O` [ATP], binding on MPK6 [5] was put at a Kd of 1.2 ± 0.3 µM. For the same molecule, the kon on MPK6 [3] worked out at 8920 M⁻¹ s⁻¹. For the same molecule, the koff at MPK6 [4] was determined as 0.0125 s⁻¹.
